Experimental data reported in the supplement of paper PMC10307832.

How the values were obtained:
Test in all cases: relative viability (nuclei count vs DMSO), 5 days (fraction); higher = more cells survive
[1] = compound: COc1cccc2c1C(=O)c1c(O)c3c(c(O)c1C2=O)C[C@@](O)(C(=O)CO)C[C@@H]3O[C@H]1C[C@H](N)[C@H](O)[C@H](C)O1 [Doxorubicin] + C[C@@H](Oc1cc(-c2cnn(C3CCNCC3)c2)cnc1N)c1c(Cl)ccc(F)c1Cl [Crizotinib] (partner 1 µM)
In short: (§1)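 For relative viability, nuclei counts in treated wells were divided by those in vehicle wells. Lung cancer cell lines had been pin-tool dosed in 1536-well plates the day after seeding and cultured for 5 days, then fixed and stained in one step (final 0.05% Triton X-100, 1% formaldehyde, 1 ug/ml Hoechst) and imaged at 4×. Doses were one drug alone or a fixed anchor-drug dose plus five library-drug doses (not always all listed) in √10 steps, and values are duplicate-plate medians.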

[2] = compound: COc1cccc2c1C(=O)c1c(O)c3c(c(O)c1C2=O)C[C@@](O)(C(=O)CO)C[C@@H]3O[C@H]1C[C@H](N)[C@H](O)[C@H](C)O1 [Doxorubicin] + O=C(c1cc(Cc2n[nH]c(=O)c3ccccc23)ccc1F)N1CCN(C(=O)C2CC2)CC1 [Olaparib] (partner 8 µM)
In short: as §1

[3] = compound: COc1cccc2c1C(=O)c1c(O)c3c(c(O)c1C2=O)C[C@@](O)(C(=O)CO)C[C@@H]3O[C@H]1C[C@H](N)[C@H](O)[C@H](C)O1 [Doxorubicin] + Nc1nc2[nH]cc(CCc3ccc(C(=O)N[C@@H](CCC(=O)O)C(=O)O)cc3)c2c(=O)[nH]1 [Pemetrexed] (partner 0.2 µM)
In short: as §1

[4] = compound: COC1=C(C=C(C=C1)C2=CC3=NC=CN3C(=N2)NC4=C(C=CC=N4)C(=O)N)OC [BAY61-3606] + C[C@]1(O)C[C@@H](c2nc(-c3ccc4ccc(-c5ccccc5)nc4c3)c3c(N)nccn32)C1 [Linsitinib] (partner 1 µM)
In short: as §1

NCI-H1975 gave a relative viability ([1]; first compound 0.001 µM) of 0.853, a relative viability ([1]; first compound 0.003162 µM) of 1.09 and a relative viability ([1]; first compound 0.01 µM) of 0.946. The relative viability ([1]; first compound 0.03162 µM) was 0.431, the relative viability ([1]; first compound 0.1 µM) was 0.423 and the relative viability ([2]; first compound 0.001 µM) was 0.746. It also gave a relative viability ([2]; first compound 0.003162 µM) of 0.896, a relative viability ([2]; first compound 0.01 µM) of 0.728 and a relative viability ([2]; first compound 0.03162 µM) of 0.575. It also gave a relative viability ([2]; first compound 0.1 µM) of 0.37, a relative viability ([3]; first compound 0.001 µM) of 0.268 and a relative viability ([3]; first compound 0.003162 µM) of 0.29. It also gave a relative viability ([3]; first compound 0.01 µM) of 0.277, a relative viability ([3]; first compound 0.03162 µM) of 0.306 and a relative viability ([3]; first compound 0.1 µM) of 0.225. The relative viability ([4]; first compound 0.02 µM) was 1.1, the relative viability ([4]; first compound 0.06325 µM) was 0.813 and the relative viability ([4]; first compound 0.2 µM) was 0.891. For the same cell line, the relative viability ([4]; first compound 0.6325 µM) was 0.837 and the relative viability ([4]; first compound 2 µM) was 0.615.

NCI-H1944 was tested, and the relative viability ([1]; first compound 0.001 µM) was 1.09, the relative viability ([1]; first compound 0.003162 µM) was 1.16 and the relative viability ([1]; first compound 0.01 µM) was 1.03. For the same cell line, the relative viability ([1]; first compound 0.03162 µM) was 1, the relative viability ([1]; first compound 0.1 µM) was 1.14 and the relative viability ([2]; first compound 0.001 µM) was 0.403. For the same cell line, the relative viability ([2]; first compound 0.003162 µM) was 0.37, the relative viability ([2]; first compound 0.01 µM) was 0.384 and the relative viability ([2]; first compound 0.03162 µM) was 0.378. For the same cell line, the relative viability ([2]; first compound 0.1 µM) was 0.423, the relative viability ([3]; first compound 0.001 µM) was 0.606 and the relative viability ([3]; first compound 0.003162 µM) was 0.602. The relative viability ([3]; first compound 0.01 µM) was 0.643, the relative viability ([3]; first compound 0.03162 µM) was 0.504 and the relative viability ([3]; first compound 0.1 µM) was 0.495. It also gave a relative viability ([4]; first compound 0.02 µM) of 1.31, a relative viability ([4]; first compound 0.06325 µM) of 1.17 and a relative viability ([4]; first compound 0.2 µM) of 1.1. For the same cell line, the relative viability ([4]; first compound 0.6325 µM) was 1.13 and the relative viability ([4]; first compound 2 µM) was 1.27.

Cell Line NCI-H2085 has a relative viability ([1]; first compound 0.001 µM) of 0.924, a relative viability ([1]; first compound 0.003162 µM) of 0.97 and a relative viability ([1]; first compound 0.01 µM) of 0.943. For the same cell line, the relative viability ([1]; first compound 0.03162 µM) was 0.648, the relative viability ([1]; first compound 0.1 µM) was 0.63 and the relative viability ([2]; first compound 0.001 µM) was 0.788. The relative viability ([2]; first compound 0.003162 µM) was 0.825, the relative viability ([2]; first compound 0.01 µM) was 0.828 and the relative viability ([2]; first compound 0.03162 µM) was 0.92. It also gave a relative viability ([2]; first compound 0.1 µM) of 0.775, a relative viability ([3]; first compound 0.001 µM) of 0.904 and a relative viability ([3]; first compound 0.003162 µM) of 0.943. The relative viability ([3]; first compound 0.01 µM) was 0.939, the relative viability ([3]; first compound 0.03162 µM) was 1.1 and the relative viability ([3]; first compound 0.1 µM) was 0.802. The relative viability ([4]; first compound 0.02 µM) was 0.977, the relative viability ([4]; first compound 0.06325 µM) was 0.931 and the relative viability ([4]; first compound 0.2 µM) was 0.853. It also gave a relative viability ([4]; first compound 0.6325 µM) of 0.813 and a relative viability ([4]; first compound 2 µM) of 0.871.

COR-L 105 gave a relative viability ([1]; first compound 0.001 µM) of 0.802, a relative viability ([1]; first compound 0.003162 µM) of 0.841 and a relative viability ([1]; first compound 0.01 µM) of 0.598. It also gave a relative viability ([1]; first compound 0.03162 µM) of 0.38, a relative viability ([1]; first compound 0.1 µM) of 0.248 and a relative viability ([2]; first compound 0.001 µM) of 0.748. It also gave a relative viability ([2]; first compound 0.003162 µM) of 0.698, a relative viability ([2]; first compound 0.01 µM) of 0.668 and a relative viability ([2]; first compound 0.03162 µM) of 0.497. The relative viability ([2]; first compound 0.1 µM) was 0.468, the relative viability ([3]; first compound 0.001 µM) was 0.87 and the relative viability ([3]; first compound 0.003162 µM) was 1.2. For the same cell line, the relative viability ([3]; first compound 0.01 µM) was 1.05, the relative viability ([3]; first compound 0.03162 µM) was 0.808 and the relative viability ([3]; first compound 0.1 µM) was 0.618. The relative viability ([4]; first compound 0.02 µM) was 1.11, the relative viability ([4]; first compound 0.06325 µM) was 1.02 and the relative viability ([4]; first compound 0.2 µM) was 0.926. It also gave a relative viability ([4]; first compound 0.6325 µM) of 0.812 and a relative viability ([4]; first compound 2 µM) of 0.616.

In the case of NCI-H23, the relative viability ([1]; first compound 0.003162 µM) is reported as 0.479, the relative viability ([1]; first compound 0.01 µM) is reported as 0.507 and the relative viability ([1]; first compound 0.03162 µM) is reported as 0.298. The relative viability ([1]; first compound 0.1 µM) was 0.449, the relative viability ([2]; first compound 0.001 µM) was 0.356 and the relative viability ([2]; first compound 0.003162 µM) was 0.373. The relative viability ([2]; first compound 0.01 µM) was 0.293, the relative viability ([2]; first compound 0.03162 µM) was 0.334 and the relative viability ([2]; first compound 0.1 µM) was 0.32. For the same cell line, the relative viability ([3]; first compound 0.001 µM) was 0.515, the relative viability ([3]; first compound 0.003162 µM) was 0.685 and the relative viability ([3]; first compound 0.01 µM) was 0.667. For the same cell line, the relative viability ([3]; first compound 0.03162 µM) was 0.661, the relative viability ([3]; first compound 0.1 µM) was 0.444 and the relative viability ([4]; first compound 0.02 µM) was 0.613. The relative viability ([4]; first compound 0.06325 µM) was 0.689, the relative viability ([4]; first compound 0.2 µM) was 0.609 and the relative viability ([4]; first compound 0.6325 µM) was 0.881. It also gave a relative viability ([4]; first compound 2 µM) of 0.423.

PC-14 gave a relative viability ([1]; first compound 0.001 µM) of 0.893, a relative viability ([1]; first compound 0.003162 µM) of 0.985 and a relative viability ([1]; first compound 0.01 µM) of 0.962. The relative viability ([1]; first compound 0.03162 µM) was 0.892, the relative viability ([1]; first compound 0.1 µM) was 0.944 and the relative viability ([2]; first compound 0.001 µM) was 0.239. It also gave a relative viability ([2]; first compound 0.003162 µM) of 0.257, a relative viability ([2]; first compound 0.01 µM) of 0.203 and a relative viability ([2]; first compound 0.03162 µM) of 0.0737. For the same cell line, the relative viability ([2]; first compound 0.1 µM) was 0.0408, the relative viability ([3]; first compound 0.001 µM) was 0.139 and the relative viability ([3]; first compound 0.003162 µM) was 0.135. It also gave a relative viability ([3]; first compound 0.01 µM) of 0.118, a relative viability ([3]; first compound 0.03162 µM) of 0.0995 and a relative viability ([3]; first compound 0.1 µM) of 0.0845. For the same cell line, the relative viability ([4]; first compound 0.02 µM) was 1.05, the relative viability ([4]; first compound 0.06325 µM) was 1.04 and the relative viability ([4]; first compound 0.2 µM) was 0.916. For the same cell line, the relative viability ([4]; first compound 0.6325 µM) was 0.968 and the relative viability ([4]; first compound 2 µM) was 0.826.

In the case of NCI-H2087, the relative viability ([1]; first compound 0.001 µM) is reported as 0.795, the relative viability ([1]; first compound 0.003162 µM) is reported as 0.952 and the relative viability ([1]; first compound 0.01 µM) is reported as 0.923. The relative viability ([1]; first compound 0.03162 µM) was 0.661, the relative viability ([1]; first compound 0.1 µM) was 0.666 and the relative viability ([2]; first compound 0.001 µM) was 0.652. The relative viability ([2]; first compound 0.003162 µM) was 0.528, the relative viability ([2]; first compound 0.01 µM) was 0.445 and the relative viability ([2]; first compound 0.03162 µM) was 0.443. It also gave a relative viability ([2]; first compound 0.1 µM) of 0.372, a relative viability ([3]; first compound 0.001 µM) of 0.577 and a relative viability ([3]; first compound 0.003162 µM) of 0.731. It also gave a relative viability ([3]; first compound 0.01 µM) of 0.579, a relative viability ([3]; first compound 0.03162 µM) of 0.615 and a relative viability ([3]; first compound 0.1 µM) of 0.668. For the same cell line, the relative viability ([4]; first compound 0.02 µM) was 0.883, the relative viability ([4]; first compound 0.06325 µM) was 1.13 and the relative viability ([4]; first compound 0.2 µM) was 0.905. It also gave a relative viability ([4]; first compound 0.6325 µM) of 1.16 and a relative viability ([4]; first compound 2 µM) of 0.732.

For NCI-H1755, the relative viability ([1]; first compound 0.001 µM) was 0.867, the relative viability ([1]; first compound 0.003162 µM) was 0.943 and the relative viability ([1]; first compound 0.01 µM) was 0.862. For the same cell line, the relative viability ([1]; first compound 0.03162 µM) was 0.915, the relative viability ([1]; first compound 0.1 µM) was 0.887 and the relative viability ([2]; first compound 0.001 µM) was 0.837. For the same cell line, the relative viability ([2]; first compound 0.003162 µM) was 0.911, the relative viability ([2]; first compound 0.01 µM) was 0.818 and the relative viability ([2]; first compound 0.03162 µM) was 0.873. The relative viability ([2]; first compound 0.1 µM) was 0.896, the relative viability ([3]; first compound 0.001 µM) was 0.419 and the relative viability ([3]; first compound 0.003162 µM) was 0.408. It also gave a relative viability ([3]; first compound 0.01 µM) of 0.419, a relative viability ([3]; first compound 0.03162 µM) of 0.492 and a relative viability ([3]; first compound 0.1 µM) of 0.467. It also gave a relative viability ([4]; first compound 0.02 µM) of 1.06, a relative viability ([4]; first compound 0.06325 µM) of 1.04 and a relative viability ([4]; first compound 0.2 µM) of 1.03. It also gave a relative viability ([4]; first compound 0.6325 µM) of 0.981 and a relative viability ([4]; first compound 2 µM) of 0.974.
